Tests used:
SAV0551 [1] = molecular target: T1, SAV0551 (Staphylococcus aureus, UniProt P64312); test: 1D 1H NMR; format: biochemical; settings: 60 mM methylglyoxal, 50 µM enzyme, 20 mM HEPES pH 7.5, 50 mM KCl, 2 mM DTT, 37°C
T1 construct: gene hchA; monomer ~32 kDa, dimer ~64 kDa
T1 sequence (P64312 1-292): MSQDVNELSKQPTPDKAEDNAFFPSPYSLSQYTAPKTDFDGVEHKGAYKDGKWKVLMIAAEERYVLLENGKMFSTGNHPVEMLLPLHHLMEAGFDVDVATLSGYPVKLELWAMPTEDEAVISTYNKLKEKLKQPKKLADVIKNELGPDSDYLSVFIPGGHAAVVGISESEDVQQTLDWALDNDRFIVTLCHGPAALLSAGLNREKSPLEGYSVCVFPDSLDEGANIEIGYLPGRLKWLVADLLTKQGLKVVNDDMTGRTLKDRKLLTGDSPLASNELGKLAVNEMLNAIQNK

SAV0551 [2] = molecular target: T1, SAV0551; test: X-ray crystal structure of the complex, […] Å; format: binding; settings: co-crystal with 50 mM glyoxylate, 30% PEG3350, 100 mM BisTris pH 6.5, 293 K; active site at Cys190; additional glyoxylate in aspartate-rich cleft between non-dimer chains
SAV0551 [3] = molecular target: T1, SAV0551; test: 1D 1H NMR and DNPH absorbance ([…] nm) of remaining methylglyoxal; format: biochemical; settings: no cofactor; 20 mM HEPES pH 7.5, 50 mM KCl, 2 mM DTT, 37°C; 60 mM (NMR) or 6 mM substrate; 50 or 10 µM enzyme
[4] = molecular target: the molecule itself; test: SEC; size-exclusion chromatography in solution; conditions not told for this result (the purification used Superdex 75 10/300 GL in 50 mM Tris pH 7.5, 0.15 M NaCl)

## C[C@@H](O)C(=O)O [D-lactate]
SAV0551 [1]
  1D 1H NMR: new peaks that correspond to the D-lactate produced by SAV0551

## O=CC(=O)O [glyoxylate]
SAV0551 [2]
  X-ray crystal structure of the complex, 3.01 Å: 5XR3 for SAV0551 with glyoxylate

## CC(=O)C=O [methylglyoxal]
SAV0551 [3]
  1D 1H NMR and DNPH absorbance (550 nm) of remaining methylglyoxal: methylglyoxal can be used as a substrate for SAV0551 to produce D-lactate

B1: SAV0551 from Staphylococcus aureus Mu50 (natural protein, UniProt P64312 1-292, looked up)
chain: T1 sequence (P64312 1-292)
notes: SAV0551, Hsp-type DJ-1/ThiJ/PfpI superfamily protein (Hsp31 homologue, glyoxalase III) of Staphylococcus aureus Mu50 (ATCC 700699); predicted ORF amplified from genomic DNA into pET-21a(+) NdeI/XhoI; monomer ~32 kDa; also called wild-type SAV0551; native SAV0551; source: E. coli BL21(DE3), purified (Ni-NTA, Superdex 75)
[4]
  stoichiometry N: 2
